In this experiment the target is T1, Dual specificity protein phosphatase 1 (Homo sapiens, UniProt P28562).
T1 sequence (P28562 whole entry): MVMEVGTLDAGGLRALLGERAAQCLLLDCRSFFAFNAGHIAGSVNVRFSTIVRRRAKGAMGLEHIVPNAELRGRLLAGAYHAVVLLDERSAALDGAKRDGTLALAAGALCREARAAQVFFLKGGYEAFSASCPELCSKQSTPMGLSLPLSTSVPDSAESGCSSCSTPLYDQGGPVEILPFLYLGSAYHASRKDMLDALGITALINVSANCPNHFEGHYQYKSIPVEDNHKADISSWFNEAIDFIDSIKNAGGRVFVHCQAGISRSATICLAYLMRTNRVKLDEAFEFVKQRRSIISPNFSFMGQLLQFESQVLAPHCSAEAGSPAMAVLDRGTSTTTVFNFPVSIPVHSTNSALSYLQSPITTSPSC
Nature of the experiment: MKP-1 phosphatase inhibitors, dose response, biochemical, probe assessment (AID 674).
For `O=C(NC1(O)C(=O)c2ccccc2C1=O)c1ccccc1` [N-(2-hydroxy-1,3-dioxo-2-indenyl)benzamide], the IC50 is above 50 µM.
As for `Oc1nc(Nc2ccccc2)cc2ccccc12` [MLS000043701], the figure is 10.7 µM.
As for `N#Cc1c(N2CCCC2)nc(N)c2c(N)nc(N3CCCC3)cc12` [SMR000061605], the figure is 14.6 µM.
As for `O=C(Nc1ccc2nc(-c3ccco3)c(-c3ccco3)nc2c1)N1CCCCCC1`, the figure is above 50 µM.
Turning to `O=C1Cc2ccccc2C(=O)N1CCc1ccccc1` [2-(2-phenylethyl)-4H-isoquinoline-1,3-dione], the IC50 was above 50 µM.
`Cc1ccccc1Nc1cc2ccccc2c(O)n1` [3-[(2-methylphenyl)amino]-2H-isoquinolin-1-one] yielded a 50% inhibitory concentration (IC50) of 8.75 µM. That is a single-digit micromolar value.
`N#Cc1c(N)sc(=S)c2c1CCN(Cc1ccccc1)C2` [3-Amino-7-benzyl-1-thioxo-5,6,7,8-tetrahydro-1H-thiopyrano[3,4-c]pyridine-4-carbonitrile] returned an IC50 of 2.38 µM. This IC50 is about 3.7-fold lower than that of the compound before.
`[O-]/[N+](=C\c1ccncc1)c1ccccc1` had an IC50 above 50 µM.
Under `COc1ccc2noc3c2c1C(=O)c1ccccc1-3` [MLS000106874] stands above 50 µM.
In the case of `Cc1ccc2c(c1)C1C=CCC1C(C(=O)O)N2` (stereo not drawn) [MLS-0067149.0001], the 50% inhibitory concentration (IC50) was above 50 µM.
Under `CCOC(=O)C(C(=O)OCC)c1cc(Br)c2noc3c2c1C(=O)c1ccccc1-3` [MLS000038842] stands above 50 µM; under `CC(=O)Nc1cc(OC(C)=O)c2nonc2c1OC(C)=O` [Acetic acid 7-acetoxy-5-acetylamino-benzo[1,2,5]oxadiazol-4-yl ester], above 50 µM; under `COc1cccc2c1NC(C(=O)O)C1CC=CC21` (stereo not drawn) [SMR000009698], above 50 µM.
Under `[O-]/[N+](=C\c1ccc(OC(F)F)cc1)c1ccccc1` [1-[4-(difluoromethoxy)phenyl]-N-phenylmethanimine oxide] stands above 50 µM.
For the compound `COc1cccc2c(C)c(C(=O)O)[nH]c12`, the IC50 was above 50 µM.
Compound `Cn1ncnc2c(=O)n(C)c(=O)nc1-2` came in with a concentration for half-maximal inhibition (IC50) of 0.423 µM.
Under `CCOc1ccc2noc3c2c1C(=O)c1ccccc1-3` [MLS000106837] stands above 50 µM.
The compound `c1ccc(CSc2nnc(-c3ccco3)c(-c3ccco3)n2)cc1` [MLS-0029114.0001] gave an IC50 above 50 µM.
Under `CCn1nc(-c2cccs2)nc2c(=O)n(C)c(=O)nc1-2` [1-ethyl-6-methyl-3-thiophen-2-yl-pyrimido[5,4-e][1,2,4]triazine-5,7-dione] stands 0.333 µM; under `Nc1cccc2cnccc12` [isoquinolin-5-amine], above 50 µM; under `O=C(OC1CCCCC1)c1ccc2c(c1)C1C=CCC1C(C(=O)O)N2` (stereo not drawn) [SMR000019385], 4.61 µM.
In turn, `O=C1C=Cc2ccccc2C1=O` [1,2-dihydronaphthalene-1,2-dione] registered an IC50 above 50 µM.
Under `Cc1ccc2c(c1C)NC(C(=O)O)C1CC=CC21` (stereo not drawn) stands 42.5 µM; under `O=C1C=Cc2ccccc2/C1=C/NC12CN3CCN(CN(C3)C1)C2` [MLS000071484], above 50 µM; under `COc1ccc(Br)cc1C=c1sc2nc(-c3ccco3)nn2c1=O` [5-[(5-bromanyl-2-methoxy-phenyl)methylidene]-2-(furan-2-yl)-[1,3]thiazolo[3,2-b][1,2,4]triazol-6-one], 7.02 µM.
Under `Cc1c(N=c2c(=O)c3ccccc3c2=O)c(=O)n(-c2ccccc2)n1C` [MLS000105950] stands 43.8 µM; under `O=C(O)C1Nc2c(O)cccc2C2C=CCC12` (stereo not drawn), above 50 µM.
With `CCn1nc(-c2ccccc2)nc2c(=O)n(C)c(=O)nc1-2` [1-Ethyl-6-methyl-3-phenyl-1H-pyrimido[5,4-e][1,2,4]triazine-5,7-dione], half-maximal inhibition (IC50) required 0.485 µM. This counts as sub-micromolar.

These data come from BindingDB's records for doi:10.7270/Q28K77GS (University of Pittsburgh, 2007).
